Source: PubChem BioAssay AID248 (DTP/NCI, 2004)
Values joined by “and” are separate entries in the source; they are usually repeats but may differ in a detail not shown here. Equal values may be shown once. Toxic doses and inconclusive results are not listed. Rule as the data show it: active = T/C of 150% or more; inactive = T/C below 125%.

System: L1210 leukemia ip in BDF1 mice, survival T/C
Assay: NCI In Vivo Anticancer Drug Screen. Data for tumor model L1210 Leukemia (intraperitoneal) in B6D2F1 (BDF1) mice
Conditions: endpoint: mean survival time, higher = longer survival
In short: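 Read-out is survival time, reported as the treated-group measurement over the vehicle-control measurement.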

[1] = dose: 100.0 mg/kg/injection, schedule: Q01DX009 (ip), vehicle: Klucel (hydroxypropylcellulose) (HPC)
[2] = dose: 200.0 mg/kg/injection, schedule: Q01DX009 (ip), vehicle: Klucel (hydroxypropylcellulose) (HPC)
[3] = dose: 100.0 mg/kg/injection, schedule: Q01DX001 (ip), vehicle: saline
[4] = dose: 100.0 mg/kg/injection, schedule: Q04DX003 (ip), vehicle: saline
[5] = dose: 200.0 mg/kg/injection, schedule: Q01DX001 (ip), vehicle: saline
[6] = dose: 200.0 mg/kg/injection, schedule: Q04DX003 (ip), vehicle: saline
[7] = dose: 400.0 mg/kg/injection, schedule: Q01DX001 (ip), vehicle: saline
[8] = dose: 400.0 mg/kg/injection, schedule: Q04DX003 (ip), vehicle: saline
[9] = dose: 12.5 mg/kg/injection, schedule: Q01DX009 (ip), vehicle: saline
[10] = dose: 100.0 mg/kg/injection, schedule: Q04DX003 (ip), vehicle: Klucel (hydroxypropylcellulose) (HPC)
[11] = dose: 200.0 mg/kg/injection, schedule: Q04DX003 (ip), vehicle: Klucel (hydroxypropylcellulose) (HPC)
[12] = dose: 400.0 mg/kg/injection, schedule: Q04DX003 (ip), vehicle: Klucel (hydroxypropylcellulose) (HPC)
[13] = dose: 100.0 mg/kg/injection, schedule: Q01DX009 (ip), vehicle: saline with Tween-80
[14] = dose: 200.0 mg/kg/injection, schedule: Q01DX009 (ip), vehicle: saline with Tween-80

Measured: T/C

Cc1ccc(C)c(NC(=O)Nc2ncccn2)c1
inactive: [1] 102 % of control | [2] 92 % of control | dose: 400.0 mg/kg/injection, schedule: Q01DX009 (ip), vehicle: Klucel (hydroxypropylcellulose) (HPC) 97 % of control

CC1CCC2C(=CC(=O)CC2(C)C)C1 (stereo unspecified)
inactive: [3] 109 % of control | [4] 108 % of control | [5] 101 % of control | [6] 104 % of control | [7] 96 % of control | [8] 103 % of control

CCCCCCCCCCCCCCCCn1cnc2ncnc(Cl)c21
inactive: dose: 12.5 mg/kg/injection, schedule: Q01DX005 (ip), vehicle: other 100 % of control | dose: 25.0 mg/kg/injection, schedule: Q01DX005 (ip), vehicle: other 102 % of control | dose: 50.0 mg/kg/injection, schedule: Q01DX005 (ip), vehicle: other 98 % of control | dose: 100.0 mg/kg/injection, schedule: Q01DX005 (ip), vehicle: other 105 % of control | dose: 200.0 mg/kg/injection, schedule: Q01DX005 (ip), vehicle: other 100 % of control

CC1=CC(c2ccc3c(c2)OCO3)c2c(c3ccccc3oc2=O)O1 (stereo unspecified)
inactive: dose: 6.25 mg/kg/injection, schedule: Q01DX009 (ip), vehicle: water 98 % of control | dose: 12.5 mg/kg/injection, schedule: Q01DX009 (ip), vehicle: water 93 % of control | dose: 25.0 mg/kg/injection, schedule: Q01DX009 (ip), vehicle: water 100 % of control and 90 % of control | dose: 50.0 mg/kg/injection, schedule: Q01DX009 (ip), vehicle: water 86 % of control

Nc1c(Cl)c(Cl)nc(C(=O)O)c1Cl
inactive: dose: 6.25 mg/kg/injection, schedule: Q01DX009 (ip), vehicle: Klucel (hydroxypropylcellulose) (HPC) 98 % of control | dose: 12.5 mg/kg/injection, schedule: Q01DX009 (ip), vehicle: Klucel (hydroxypropylcellulose) (HPC) 98 % of control | dose: 50.0 mg/kg/injection, schedule: Q01DX009 (ip), vehicle: Klucel (hydroxypropylcellulose) (HPC) 100 % of control | [1] 95 % of control | [2] 97 % of control

Cl[CH2][Sn]([c]1ccccc1)([c]1ccccc1)[c]1ccccc1
inactive: dose: 6.25 mg/kg/injection, schedule: Q01DX009 (ip), vehicle: saline with Tween-80 113 % of control | dose: 6.25 mg/kg/injection, schedule: Q01DX009 (ip), vehicle: saline 93 % of control | dose: 12.5 mg/kg/injection, schedule: Q01DX009 (ip), vehicle: saline with Tween-80 106 % of control | [9] 101 % of control | dose: 25.0 mg/kg/injection, schedule: Q01DX009 (ip), vehicle: saline with Tween-80 101 % of control

Clc1nc(Sc2ccc(Br)cc2)c(Cl)c(Sc2ccc(Br)cc2)n1
inactive: dose: 62.5 mg/kg/injection, schedule: Q01DX001 (ip), vehicle: Klucel (hydroxypropylcellulose) (HPC) 95 % of control and 89 % of control | dose: 125.0 mg/kg/injection, schedule: Q01DX001 (ip), vehicle: Klucel (hydroxypropylcellulose) (HPC) 94 % of control | dose: 250.0 mg/kg/injection, schedule: Q01DX001 (ip), vehicle: Klucel (hydroxypropylcellulose) (HPC) 94 % of control and 98 % of control

O=C(O)/C(Cc1cccc(=O)n1Cc1ccccc1)=N\O
inactive: dose: 75.0 mg/kg/injection, schedule: Q01DX001 (ip), vehicle: Klucel (hydroxypropylcellulose) (HPC) 97 % of control | dose: 150.0 mg/kg/injection, schedule: Q01DX001 (ip), vehicle: Klucel (hydroxypropylcellulose) (HPC) 97 % of control | dose: 300.0 mg/kg/injection, schedule: Q01DX001 (ip), vehicle: Klucel (hydroxypropylcellulose) (HPC) 94 % of control

CC(C)=CCNC1=NCCN1
inactive: [9] 91 % of control | dose: 25.0 mg/kg/injection, schedule: Q01DX009 (ip), vehicle: saline 94 % of control | dose: 50.0 mg/kg/injection, schedule: Q01DX009 (ip), vehicle: saline 99 % of control

CCCCCCCCCCCCCCCC(CCCCCCCC)CCCCCCCC
inactive: dose: 75.0 mg/kg/injection, schedule: Q01DX001 (ip), vehicle: saline with Tween-80 97 % of control | dose: 150.0 mg/kg/injection, schedule: Q01DX001 (ip), vehicle: saline with Tween-80 110 % of control | dose: 300.0 mg/kg/injection, schedule: Q01DX001 (ip), vehicle: saline with Tween-80 95 % of control

Cc1ccc(NC2CNC(=O)NC2=O)cc1 (stereo unspecified)
inactive: dose: 100.0 mg/kg/injection, schedule: Q01DX Z (ip), vehicle: methylcellulose (MC) 100 % of control | dose: 200.0 mg/kg/injection, schedule: Q01DX Z (ip), vehicle: methylcellulose (MC) 93 % of control

Cc1cccc(OCC(O)CN(Cc2ccsc2)c2ccccn2)c1 (stereo unspecified)
inactive: dose: 100.0 mg/kg/injection, schedule: Q04DX002 (ip), vehicle: Klucel (hydroxypropylcellulose) (HPC) 94 % of control | dose: 200.0 mg/kg/injection, schedule: Q04DX002 (ip), vehicle: Klucel (hydroxypropylcellulose) (HPC) 106 % of control

O=C(O)CCCCCCCCCCCO
inactive: [10] 100 % of control | [11] 97 % of control | [12] 91 % of control

CCCCCCCCCCCCCCCCSc1ccc(C)cc1
inactive: dose: 100.0 mg/kg/injection, schedule: Q01DX009 (ip), vehicle: other 88 % of control | [10] 89 % of control | dose: 200.0 mg/kg/injection, schedule: Q01DX009 (ip), vehicle: other 88 % of control | [11] 93 % of control | dose: 400.0 mg/kg/injection, schedule: Q01DX009 (ip), vehicle: other 112 % of control | [12] 96 % of control

O=C1CCSCC1
inactive: [3] 107 % of control | dose: 100.0 mg/kg/injection, schedule: Q01DX009 (ip), vehicle: saline 100 % of control | [4] 100 % of control | [5] 104 % of control | dose: 200.0 mg/kg/injection, schedule: Q01DX009 (ip), vehicle: saline 95 % of control | [6] 101 % of control | [7] 95 % of control | dose: 400.0 mg/kg/injection, schedule: Q01DX009 (ip), vehicle: saline 95 % of control | [8] 104 % of control

c1cc2[nH]c1C1(CCCC1)c1ccc([nH]1)C1(CCCC1)c1ccc([nH]1)C1(CCCC1)c1ccc([nH]1)C21CCCC1
inactive: [3] 102 % of control | [5] 103 % of control | [7] 94 % of control

CCC1(c2ccccc2)C(=O)N(C)C(=O)N(CBr)C1=O (stereo unspecified)
inactive: [13] 109 % of control | dose: 100.0 mg/kg/injection, schedule: Q04DX002 (ip), vehicle: saline with Tween-80 92 % of control | [14] 106 % of control | dose: 200.0 mg/kg/injection, schedule: Q04DX002 (ip), vehicle: saline with Tween-80 98 % of control | dose: 400.0 mg/kg/injection, schedule: Q04DX002 (ip), vehicle: saline with Tween-80 103 % of control

COc1ccccc1NC(=O)Nc1cc(C)cc(C)n1
inactive: [13] 101 % of control | dose: 100.0 mg/kg/injection, schedule: Q04DX003 (ip), vehicle: saline with Tween-80 97 % of control | [14] 98 % of control | dose: 200.0 mg/kg/injection, schedule: Q04DX003 (ip), vehicle: saline with Tween-80 97 % of control | dose: 400.0 mg/kg/injection, schedule: Q01DX009 (ip), vehicle: saline with Tween-80 104 % of control | dose: 400.0 mg/kg/injection, schedule: Q04DX003 (ip), vehicle: saline with Tween-80 101 % of control

CC(SC1=NCCN1)C(=O)O (stereo unspecified)
inactive: [3] 98 % of control | [5] 94 % of control | [7] 98 % of control

CC1(C)OC2COC(c3[nH]nc(C(N)=O)c3Br)C2O1 (stereo unspecified)
inactive: dose: 100.0 mg/kg/injection, schedule: Q01DX005 (ip), vehicle: saline 104 % of control | dose: 200.0 mg/kg/injection, schedule: Q01DX005 (ip), vehicle: saline 96 % of control
